Values of other authors in patent US20150030707A1, “Rhus Coriaria L. Extract For Use In The Treatment Of Hyperhidrosis” (BIOMEDICAL RESEARCH S.R.L., priority 2012, published 2015).

Settings: in vivo

For botulinum toxin, the “duration of efficacy of the injections” value is listed as 5-6 months.
